Consider 10 molecules from patent US6057311A, “Benzodiazonine derivatives binding to cholecystokinin or gastrin receptors” (James Black Foundation Limited, priority 1996, dated 2000).

Structures are written as SMILES.

For one assay, the target named is T1, CCKA (Cavia porcellus, UniProt Q63931).
T1 construct: The pancreatata were removed from male guinea-pigs; from tissue; host or cells: pancreas of male Dunkin Hartley guinea pigs, membranes
T1 sequence (Q63931 1-430): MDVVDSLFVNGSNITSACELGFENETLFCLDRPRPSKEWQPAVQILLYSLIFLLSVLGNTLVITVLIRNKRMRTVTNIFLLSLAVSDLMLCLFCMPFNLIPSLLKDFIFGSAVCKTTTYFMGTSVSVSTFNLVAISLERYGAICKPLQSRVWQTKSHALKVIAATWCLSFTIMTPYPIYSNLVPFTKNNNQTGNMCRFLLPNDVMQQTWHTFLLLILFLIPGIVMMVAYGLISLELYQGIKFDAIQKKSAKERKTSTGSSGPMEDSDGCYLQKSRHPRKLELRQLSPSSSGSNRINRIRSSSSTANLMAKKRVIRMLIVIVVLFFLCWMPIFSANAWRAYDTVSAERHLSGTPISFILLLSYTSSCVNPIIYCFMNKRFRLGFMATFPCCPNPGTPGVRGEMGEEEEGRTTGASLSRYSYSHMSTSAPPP
Put plainly: CCKA binding assay, guinea pig pancreas membranes ([125I]-CCK8(S)). The following applies: [125I]-CCK8(S) 200 pM, 0.375 μM PD134,308, 150 min at 21±3° C.; for Ki: pH 7.2, read-out: pKi (Guinea pig pancreas) (converted). The method, then:
The compounds of the examples were also tested in a CCKA binding assay as follows:
The pancreatata were removed from male guinea-pigs (200-300 g; Dunkin Hartley) and placed in ice-cold HEPES buffer (pH 7.2@21±3° C.). The pancreatata were homogenised in 40 ml ice-cold HEPES buffer using a polytron (Brinkmann, PT10, setting 10) 4×1 second. The homogenate was centrifuged at 39,800 g for 15 min at 4° C. The supernatant was discarded and the pellet re-suspended using a Teflon-in-glass homogeniser in 20 volumes of fresh buffer and re-centrifuged as above. The final pellet was re-suspended using a Teflon-in-glass homogeniser to a tissue concentration of 1 mg.ml^-1 (original wet weight), and filtered through 500 μm pore-size Nytex mesh.
The membranes (400 μl; containing 0.375 μM PD134,308) were incubated for 150 minutes at 21±3° C. in a final volume of 0.5 ml with HEPES buffer containing [^125 I]-CCK8 (S) (50 μl; 200 pM) and competing compound. Total and non-specific binding of [^125 I]-CCK8 (S) were defined using 50 μl of buffer and 50 μl of 100 nM L-364,718 respectively. The assay was terminated by rapid filtration through pre-soaked Whatman GF/B filters using a Brandell Cell Harvester. The filters were washed (3×3 ml) with ice-cold 50 mM Tris HCl (pH 7.4 at 4° C.) and bound radioactivity was determined by counting (1 min) in a gamma counter.

A further assay addresses T2, CCKB receptor (Mus musculus, UniProt P56481).
T2 construct: The cortex was dissected, weighed and homogenised in 40 ml ice-cold buffer; tissue Charles River (animals); host or cells: cerebral cortex of male CD1 mice, membranes
T2 sequence (P56481 1-453): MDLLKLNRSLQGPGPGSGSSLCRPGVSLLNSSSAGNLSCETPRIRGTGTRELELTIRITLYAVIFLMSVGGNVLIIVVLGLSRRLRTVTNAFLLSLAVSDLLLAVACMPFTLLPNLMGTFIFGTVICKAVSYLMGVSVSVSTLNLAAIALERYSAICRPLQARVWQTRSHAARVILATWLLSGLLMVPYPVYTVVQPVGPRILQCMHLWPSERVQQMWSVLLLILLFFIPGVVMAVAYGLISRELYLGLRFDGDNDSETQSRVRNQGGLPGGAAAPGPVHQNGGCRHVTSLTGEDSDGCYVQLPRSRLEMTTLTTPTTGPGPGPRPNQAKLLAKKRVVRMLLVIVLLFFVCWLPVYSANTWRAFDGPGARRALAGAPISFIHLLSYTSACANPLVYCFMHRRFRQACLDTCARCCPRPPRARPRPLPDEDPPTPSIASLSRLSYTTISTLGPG
Nature of the assay: radioligand binding assay at the CCKB receptor in mouse cortical membranes ([125I]-CCK8S). The following applies: [125I]-CCK8S 200 pM, 150 min at 21±3° C.; for Ki: pH 7.2, read-out: pKi (Mouse cortex) (converted). As to the method:
The compounds of the examples were tested for binding at the CCKB receptor in mouse cortical membranes by means of a radioligand binding assay. The procedure was as follows:
The whole brains from male mice (CD1 22-25 g; Charles River) were removed and placed in ice-cold buffer (pH7.2@21±3° C.) of the following composition (mM); 10 HEPES, 130 NaCl, 4.7 KCl, 5 MgCl2, 1 EDTA and containing 0.25 g.1^-1 bacitracin. The cortex was dissected, weighed and homogenised in 40 ml ice-cold buffer using a Teflon-in-glass homogeniser. The homogenate was centrifuged at 39,800 g for 20 min at 4° C., the supernatant discarded and the pellet resuspended by homogenisation in fresh buffer. The homogenate was recentrifuged (39,800 g; 20 min @4° C.) and the final pellet was resuspended in HEPES buffer to give a tissue concentration of 2 mg.ml^-1 (original wet weight).
The membranes (400 μl) were incubated for 150 min at 21±3° C. in a final volume of 0.5 ml with HEPES buffer containing [^125 I]-CCK8S (0.05 ml; 200 pM NEN 2200 Ci.mmol^-1) and competing compound. Total and non-specific binding of [^125 I]-CCK8S were defined using 0.05 ml of buffer and 0.05 ml of […] L-365,260, respectively. The assay was terminated by rapid filtration through pre-soaked Whatman GF/B filters using a Brandell Cell harvester. The filters were washed (3×3 ml) with ice-cold 50 mM Tris-HCl (pH7.4@4° C.) and bound radioactivity determined by counting (1 min.) in a gamma-counter.

With `Cc1cccc(NC(=O)N2CCC(C)c3ccccc3N(Cc3ccccc3)C(=O)C2)c1` (centres unmarked) [Example 10, 1-benzyl-7-methyl-4-(3-methylphenyl)carbamyl-2-oxo-2,3,4,5,6,7-hexahydro-1H-1,4-benzodiazonine], the Ki is 0.316 µM at CCKA and 2.51 µM at CCKB receptor.
Take `CC(=O)N1[C@H](CC23CC4CC(CC(C4)C2)C3)C(=O)N(Cc2ccccc2)c2ccccc2C(=O)C[C@H]1C(=O)O` [Example 11, (3R,5S) 4-acetyl-3-[(1-adamantyl)methyl]-1-benzyl-2,7-dioxo-2,3,4,5,6,7-hexahydro-1H-1,4-benzodiazonine-5-carboxylate]: the Ki at CCKA is 5.01 µM; on CCKB receptor, 1 µM.
In the case of `CC(=O)N1[C@H](C(=O)O)CC(=O)c2ccccc2N(Cc2ccccc2)C(=O)[C@@H]1CC12CC3CC(CC(C3)C1)C2` [Example 12, (3S,5S)-4-acetyl-3-(1-adamantyl)methyl-1-benzyl-2,7-dioxo-2,3,4,5,6,7-hexahydro-1H-1,4-benzodiazonine-5-carboxylate], the Ki at CCKA and on CCKB receptor was 10 µM in each case.
Take `COc1cccc(CN2C(=O)[C@@H](CC34CC5CC(CC(C5)C3)C4)N(C(C)=O)[C@H](C(=O)O)CC(=O)c3ccccc32)c1` [Example 13, (3R,5S)-4-acetyl-3-[(1-adamantyl)methyl]-1-(3-methoxy)benzyl-2,7-dioxo-2,3,4,5,6,7-hexahydro-1H-1,4-benzodiazonine-5-carboxylate]: the Ki at CCKA is 3.16 µM; on CCKB receptor it was 2.51 µM.
As for `COc1ccc(CN2C(=O)[C@@H](CC34CC5CC(CC(C5)C3)C4)N(C(C)=O)[C@H](C(=O)O)CC(=O)c3ccccc32)cc1` [Example 14, (3R,5S)-4-acetyl-3-[(1-adamantyl)methyl]-1-(4-methoxy)benzyl-2,7-dioxo-2,3,4,5,6,7-hexahydro-1H-1,4-benzodiazonine-5-carboxylate], the Ki at CCKA was 3.16 µM; at CCKB receptor, 2.51 µM.
On to `CC(=O)N1[C@H](CC23CC4CC(CC(C4)C2)C3)C(=O)N(Cc2cccc(Cl)c2)c2ccccc2C(=O)C[C@H]1C(=O)O` [Example 15], for which the figures for the Ki on CCKA and on CCKB receptor were 1.58 µM and 1.26 µM, respectively.
The like results for `CC(=O)N1[C@H](CC23CC4CC(CC(C4)C2)C3)C(=O)N(Cc2ccc(Cl)cc2)c2ccccc2C(=O)C[C@H]1C(=O)O` [Example 16, (3R,5S)-4-acetyl-3-[(1-adamantyl)methyl]-1-(4-chloro)benzyl-2,7-dioxo-2,3,4,5,6,7-hexahydro-1H-1,4-benzodiazonine-5-carboxylate] were, in that order, 2 µM and 1.58 µM.
For `CC(=O)N1[C@H](CC23CC4CC(CC(C4)C2)C3)C(=O)N(Cc2cccc(N)c2)c2ccccc2C(=O)C[C@H]1C(=O)O` [Example 17, (3R,5S)-4-acetyl-3-[(1-adamantyl)methyl]-1-(3-amino)benzyl-2,7-dioxo-2,3,4,5,6,7-hexahydro-1H-1,4-benzodiazonine-5-carboxylate], the Ki was 6.31 µM on CCKA and 1.26 µM at CCKB receptor.
For the molecule `COC(=O)[C@@H]1CC(=O)c2ccccc2N(Cc2ccccc2)C(=O)[C@@H](CC23CC4CC(CC(C4)C2)C3)N1C(C)=O` [Example 18, (3R,5S)-methyl 4-acetyl-3-[(1-adamantyl)methyl]-1-benzyl-2,7-dioxo-2,3,4,5,6,7-hexahydro-1H-1,4-benzodiazonine-5-carboxylate], the “pKi (Guinea pig pancreas)” value on CCKA (pH 7.2) came out at 5.4. Moreover, the “pKi (Mouse cortex)” value on CCKB receptor (pH 7.2) was determined as 5.5.
Consider `CC(=O)N1[C@H](CC(C)(C)C)C(=O)N(Cc2ccccc2)c2ccccc2C(=O)C[C@H]1C(=O)O` [Example 19, (3R,5S)-4-acetyl-1-benzyl-3-(2,2-dimethylpropyl)-2,7-dioxo-2,3,4,5,6,7-hexahydro-1H-1,4-benzodiazonine-5-carboxylate], for which the figures for the Ki on CCKA and at CCKB receptor were 15.8 µM and 7.94 µM, respectively.
